# Values of other authors as cited in patent US20160318862A1, “SYNTHESIS OF DELTA 12-PGJ3 AND RELATED COMPOUNDS” (WILLIAM MARSH RICE UNIVERSITY, priority 2013, published 2016).
# Like-named read-outs stand apart in the source and are kept apart here.
# Tests used:
# [1] = target: T1, peroxisome proliferator-activated receptor γ (PPARγ) (Homo sapiens, UniProt P37231)
# T1 sequence (P37231 1-505): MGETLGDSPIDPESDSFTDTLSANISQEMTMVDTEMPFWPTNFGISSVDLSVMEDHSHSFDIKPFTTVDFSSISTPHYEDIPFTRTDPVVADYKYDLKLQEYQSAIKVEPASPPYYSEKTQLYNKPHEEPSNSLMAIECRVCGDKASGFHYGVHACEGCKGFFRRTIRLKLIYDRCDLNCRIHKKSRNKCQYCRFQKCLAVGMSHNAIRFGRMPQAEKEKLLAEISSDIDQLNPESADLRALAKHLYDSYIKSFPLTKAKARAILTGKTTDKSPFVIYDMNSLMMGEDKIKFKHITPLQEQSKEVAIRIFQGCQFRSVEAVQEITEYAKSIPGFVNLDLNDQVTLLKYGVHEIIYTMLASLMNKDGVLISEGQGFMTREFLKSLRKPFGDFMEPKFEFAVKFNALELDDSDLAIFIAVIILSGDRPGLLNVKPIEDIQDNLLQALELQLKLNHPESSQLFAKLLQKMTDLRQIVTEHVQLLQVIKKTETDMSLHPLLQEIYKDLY
# [2] = test system: topoisomerase
# [3] = test system: gadd45 promoter
# [4] = test system: tumor cells; settings: incorporating into tumor cells and transferring into nuclei
# [5] = test system: NF-κB-mediated transcription
# [6] = test system: AML LSCs; settings: human AML leukemia samples; reported in U.S. Patent Publication 2013/0005737
# [7] = test system: mice infected with Friend erythroleukemia virus or those expressing chronic myelogenous leukemia (CML) oncoprotein BCR-abl in the hematopoietic stem cell (HSC) …
# [8] = test system: AML LSCs; settings: murine models of AML; reported in U.S. Patent Publication 2013/0005737
# [9] = test system: leukemia stem cells (LSCs)
# [10] = test system: p53; settings: LSCs and leukemia cells
# [11] = test system: normal hematopoietic stem cells
structure (smiles),measurement,setting,value
"CCCCC/C=C/C=C1/C(=O)C=C[C@@H]1C/C=C\CCCC(=O)O [15-deoxy-Δ^12,14-PGJ2]",ligand potency for PPARγ,[1],most potent natural ligand reported to date
CCCCC[C@H](O)C/C=C1/C(=O)C=C[C@@H]1C/C=C\CCCC(=O)O [Δ^12-PGJ2],topoisomerase activity,[2],inhibiting topoisomerase
same,gadd45 promoter activity,[3],activating the gadd45 promoter independently of p53
same,antitumor effects,[4],strong antitumor effects
"O=C(O)CCCC=CCC1C=CC(=O)C1=CCC(O)CC=CCC(F)(F)F (stereo not shown) [compound 3, ω-Trifluoromethyl-Δ^12-PGJ3]",NF-κB-mediated transcription,[5],Inhibition of the NF-κB-mediated transcription
CC/C=C\C[C@H](O)C/C=C1/C(=O)C=C[C@@H]1C/C=C\CCCC(=O)O [Δ^12-PGJ3],targeting of AML LSCs by inducing apoptosis,[6],effectively target AML LSCs by inducing apoptosis
same,"hematological parameters, splenic histology and survival",[7]; intraperitoneal administration,"completely restored normal hematological parameters, splenic histology, and enhanced the survival"
same,development of leukemia,[7]; two murine models of leukemia,alleviates the development of leukemia
same,targeting of AML LSCs by inducing apoptosis,[8],effectively target AML LSCs by inducing apoptosis
same,eradication of LSCs,"[9]; in vivo, donor cells from treated mice unable to cause leukemia in secondary transplants",completely eradicated LSCs in vivo
same,apoptosis of leukemia stem cells,[9]; mice spleen and bone marrow,selectively targets and induces apoptosis of leukemia stem cells
same,expression of p53,[10],inducing the expression of p53
CC/C=C\C[C@H](O)/C=C/[C@H]1C(=O)C=C[C@@H]1C/C=C\CCCC(=O)O [PGJ3],effect on normal hematopoietic stem cells or the differentiation of hematopoietic progenitors,[11],no effect
